These results are taken from US20220041606A1, “POSITIVE ALLOSTERIC MODULATORS OF THE MUSCARINIC ACETYLCHOLINE RECEPTOR M1” (Vanderbilt University, priority 2020, published 2022).

Broadly, the EC50 is the concentration that produces a half-maximal response. For orientation: Emax means the size of the effect at its maximum, as opposed to the concentration needed.

The target of assay [1] is T1, human mAChR M1 (Homo sapiens, UniProt P11229).
T1 construct: host or cells: CHO-K1 cells (ATCC), stably transfected using Lipofectamine2000
T1 sequence (P11229 1-460): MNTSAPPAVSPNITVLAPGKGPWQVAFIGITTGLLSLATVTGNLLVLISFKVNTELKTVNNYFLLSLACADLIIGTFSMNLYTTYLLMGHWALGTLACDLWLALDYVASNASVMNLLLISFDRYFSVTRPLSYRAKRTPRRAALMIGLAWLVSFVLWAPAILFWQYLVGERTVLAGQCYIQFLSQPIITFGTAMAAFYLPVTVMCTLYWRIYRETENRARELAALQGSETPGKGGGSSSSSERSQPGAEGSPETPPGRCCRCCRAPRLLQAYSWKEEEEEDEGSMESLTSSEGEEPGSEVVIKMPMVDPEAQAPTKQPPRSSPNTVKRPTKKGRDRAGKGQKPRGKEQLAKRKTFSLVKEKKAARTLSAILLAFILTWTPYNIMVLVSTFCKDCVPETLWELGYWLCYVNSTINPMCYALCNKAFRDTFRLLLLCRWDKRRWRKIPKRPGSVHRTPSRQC
Put plainly: mAChR M1 cell-based functional assay (calcium mobilization), PAM activity: increase in the EC20 acetylcholine response. To be noted: CHO-K1 cells expressing hM1; potentiation of EC20 acetylcholine response. The source says:
(§1) Chinese hamster ovary (CHO-K1) cells stably expressing rat (r)M1 were purchased from the American Type Culture Collection and cultured according to their indicated protocol. CHO cells stably expressing human (h)M2, hM3, and hM5 were described previously (Levey, et al., 1991); hM1 and hM4 cDNAs were purchased from Missouri S&T cDNA Resource; rM4 cDNA was provided by T. L. Bonner (National Institutes of Health, Bethesda, MID). rM2 and rM3 were cloned from a rat brain cDNA library and sequence verified. hM1, rM2, rM3, hM4, and rM4 cDNAs were used to stably transfect CHO-K1 cells purchased from the American Type Culture Collection using Lipofectamine2000. To make stable rM2, hM2, rM3, hM4, and rM4 cell lines for use in calcium mobilization assays, these cells also were stably transfected with a chimeric G-protein (Gqi5) (provided by B. R. Conklin, University of California, San Francisco) using Lipofectamine 2000. rM1, hM1, rM3, hM3, rM5, and hM5 cells were grown in Ham's F-12 medium containing 10% heat-inactivated fetal bovine serum (FBS), 20 mM HEPES, and 50 μg/mL G418 sulfate. rM2-Gq15, hM2-Gqi5, and hM4-Gqi5 cells were grown in the same medium also containing 500 μg/mL Hygromycin B. Stable rM4-Gqi5 cells were grown in DMEM containing 10% heat-inactivated FBS, 20 mM HEPES, 400 μg/mL G418 sulfate, and 500 μg/mL Hygromycin B.
(§2) For high throughput measurement of agonist-evoked increases in intracellular calcium, CHO-K1 cells stably expressing muscarinic receptors were plated in growth medium lacking G418 and hygromycin at 15,000 cells/20 μL/well in Greiner 384-well black-walled, tissue culture (TC)-treated, clear-bottom plates (VWR). Cells were incubated overnight at 37° C. and 5% CO2. The next day, cells were washed using an ELX 405 (BioTek) with four washes (80 μL) of assay buffer then aspirated to 20 μL. Next, 20 μL of 16 μM Fluo-4/acetoxymethyl ester (Invitrogen, Carlsbad, Calif.) prepared as a 2.3 mM stock in DMSO and mixed in a 1:1 ratio with 10% (w/v) Pluronic F-127 and diluted in assay buffer was added to the wells and the cell plates were incubated for 50 min at 37° C. and 5% CO2. Dye was removed by washing with the ELX 405 (four 80 μL washes of assay buffer) then aspirated to 20 μL. Compound master plates were formatted in an 11 point CRC format (1:3 dilutions) in 100% DMSO with a starting concentration of 10 mM using the BRAVO liquid handler (Agilent). Test compound CRCs were then transferred to daughter plates (240 nL) using the Echo acoustic plate reformatter (Labcyte, Sunnyvale, Calif.) and then diluted into assay buffer (40 μL) to a 2× stock using a Thermo Fisher Combi (Thermo Fisher Scientific, Waltham, Mass.).
(§3) Calcium flux was measured using the Functional Drug Screening System (FDSS) 6000 (Hamamatsu Corporation, Tokyo, Japan) as an increase in the fluorescent static ratio. Compounds were applied to cells (20 μL, 2×) using the automated system of the FDSS 6000 at 4 s into the 300 s protocol and the data were collected at 1 Hz. At 144 s into the 300s protocol, 10 μL of an EC20 concentration of the muscarinic receptor agonist acetylcholine was added (5×), followed by the addition of 12 μL an EC80 concentration of acetylcholine at the 230 s time point (5×). Agonist activity was analyzed as a concentration-dependent increase in calcium mobilization upon compound addition. Emax values for agonist activity are expressed relative to the maximum for acetylcholine. Positive allosteric modulator activity was analyzed as a concentration-dependent increase in the EC20 acetylcholine response. Antagonist activity was analyzed as a concentration-dependent decrease in the EC80 acetylcholine response. Concentration-response curves were generated using a four-parameter logistical equation in XLfit curve fitting software (IDBS, Bridgewater, N.J.) for Excel (Microsoft, Redmond, Wash.) or Prism (GraphPad Software, Inc., San Diego, Calif.). […]

The target in assay [2] is T1, human mAChR M1. Briefly: mAChR M1 cell-based functional assay (calcium mobilization), agonist activity upon compound addition. Conditions: CHO-K1 cells expressing hM1; for EC50: compound alone, before acetylcholine addition; for Emax: relative to the maximum for acetylcholine.
Description: as §1, §2, §3
A general note: A change in cytosolic calcium serves as a functional read-out for many receptors and channels.

The structures appear in SMILES notation.

Take `Cc1cc(-c2ccc(Cn3cc(C(=O)N[C@H]4CCCC[C@@H]4O)c4ncccc4c3=O)c(F)c2)ccn1` [Compound A27, 6-(2-Fluoro-4-(2-methylpyridin-4-yl)benzyl)-N-((1S,2S)-2-hydroxycyclohexyl)-5-oxo-5,6-dihydro-1,6-naphthyridine-8-carboxamide]: the EC50 is 860 nM on human mAChR M1 [1] and greater than 10000 nM on human mAChR M1 [2]. The Emax at human mAChR M1 [1] was 74%; on human mAChR M1 [2] it was 6%.
The matching figures for `Cc1cc(-c2ccc(Cn3cc(C(=O)N[C@H]4CCC[C@@H]4O)c4ncccc4c3=O)c(F)c2)ccn1` [Compound A28, 6-(2-fluoro-4-(2-methylpyridin-4-yl)benzyl)-N-((1S,2S)-2-hydroxycyclopentyl)-5-oxo-5,6-dihydro-1,6-naphthyridine-8-carboxamide]: 1140 nM, greater than 10000 nM, 54% and less than 5%.
With `Cc1cccc(-c2ccc(Cn3cc(C(=O)N[C@H]4CCOC[C@@H]4O)c4ncccc4c3=O)c(F)c2)c1` [Compound A29, 6-((3-fluoro-3′-methyl-[1,1′-biphenyl]-4-yl)methyl)-N-((3R,4S)-3-hydroxytetrahydro-2H-pyran-4-yl)-5-oxo-5,6-dihydro-1,6-naphthyridine-8-carboxamide], at human mAChR M1 [1], the half-maximal effective concentration (EC50) turned out to be 4840 nM and the Emax is 61%. Besides, on human mAChR M1 [2], the EC50 is greater than 10000 nM and the maximum response (Emax) was less than 5%.
The matching figures for `Cc1cc(C)cc(-c2ccc(Cn3cc(C(=O)N[C@H]4CCOC[C@@H]4O)c4ncccc4c3=O)c(F)c2)c1` [Compound A30, 6-((3-fluoro-3′,5′-dimethyl-[1,1′-biphenyl]-4-yl)methyl)-N-((3R,4S)-3-hydroxytetrahydro-2H-pyran-4-yl)-5-oxo-5,6-dihydro-1,6-naphthyridine-8-carboxamide]: 4610 nM, 47%, greater than 10000 nM and less than 5%.
The corresponding values for `Cc1cccc(-c2cc(F)c(Cn3cc(C(=O)N[C@H]4CCOC[C@@H]4O)c4ncccc4c3=O)c(F)c2)c1` [Compound A31, 6-((3,5-difluoro-3′-methyl-[1,1′-biphenyl]-4-yl)methyl)-N-((3R,4S)-3-hydroxytetrahydro-2H-pyran-4-yl)-5-oxo-5,6-dihydro-1,6-naphthyridine-8-carboxamide] are 2600 nM, 70%, greater than 10000 nM and less than 5%.
The matching figures for `Cc1cc(C)cc(-c2cc(F)c(Cn3cc(C(=O)N[C@H]4CCOC[C@@H]4O)c4ncccc4c3=O)c(F)c2)c1` [Compound A32, 6-((3,5-difluoro-3′,5′-dimethyl-[1,1′-biphenyl]-4-yl)methyl)-N-((3R,4S)-3-hydroxytetrahydro-2H-pyran-4-yl)-5-oxo-5,6-dihydro-1,6-naphthyridine-8-carboxamide]: 2240 nM, 70%, greater than 10000 nM and less than 5%.
As for `Cc1cncc(-c2cc(F)c(Cn3cc(C(=O)N[C@H]4CCOC[C@@H]4O)c4ncccc4c3=O)c(F)c2)c1` [Compound A33, 6-(2,6-difluoro-4-(5-methylpyridin-3-yl)benzyl)-N-((3R,4S)-3-hydroxytetrahydro-2H-pyran-4-yl)-5-oxo-5,6-dihydro-1,6-naphthyridine-8-carboxamide], the results for the EC50 at human mAChR M1 [1] and on human mAChR M1 [2] were 860 nM and 3220 nM, respectively. In addition, the maximal effect (Emax) on human mAChR M1 [1] was found to be 64%; at human mAChR M1 [2], 13%.
The matching figures for `Cc1ccc(-c2cc(F)c(Cn3cc(C(=O)N[C@H]4CCOC[C@@H]4O)c4ncccc4c3=O)c(F)c2)cn1` [Compound A34, 6-(2,6-difluoro-4-(6-methylpyridin-3-yl)benzyl)-N-((3R,4S)-3-hydroxytetrahydro-2H-pyran-4-yl)-5-oxo-5,6-dihydro-1,6-naphthyridine-8-carboxamide]: 620 nM, 2880 nM, 65% and 12%.
With `Cc1ccc(-c2cc(F)c(Cn3cc(C(=O)N[C@H]4CCCC[C@@H]4O)c4ncccc4c3=O)c(F)c2)cn1` [Compound A35, 6-(2,6-difluoro-4-(6-methylpyridin-3-yl)benzyl)-N-((1S,2S)-2-hydroxycyclohexyl)-5-oxo-5,6-dihydro-1,6-naphthyridine-8-carboxamide], at human mAChR M1 [1], the EC50 is 550 nM and the maximum response (Emax) turned out to be 48%. Also, on human mAChR M1 [2], the EC50 was greater than 10000 nM and the Emax is less than 5%.
For the compound `Cc1cc(-c2cc(F)c(Cn3cc(C(=O)N[C@H]4CCOC[C@@H]4O)c4ncccc4c3=O)c(F)c2)ccn1` [Compound A36, 6-(2,6-difluoro-4-(2-methylpyridin-4-yl)benzyl)-N-((3R,4S)-3-hydroxytetrahydro-2H-pyran-4-yl)-5-oxo-5,6-dihydro-1,6-naphthyridine-8-carboxamide], the EC50 on human mAChR M1 [1] was found to be 610 nM; at human mAChR M1 [2], 1770 nM. Besides, the maximum response (Emax) at human mAChR M1 [1] is 65%; at human mAChR M1 [2], 13%.
The corresponding values for `Cc1cc(-c2cc(F)c(Cn3cc(C(=O)N[C@H]4CCCC[C@@H]4O)c4ncccc4c3=O)c(F)c2)ccn1` [Compound A37, 6-(2,6-difluoro-4-(2-methylpyridin-4-yl)benzyl)-N-((1S,2S)-2-hydroxycyclohexyl)-5-oxo-5,6-dihydro-1,6-naphthyridine-8-carboxamide] are 780 nM, greater than 10000 nM, 46% and less than 5%.
The corresponding values for `Cc1cc(-c2cc(F)c(Cn3cc(C(=O)N[C@H]4CCC[C@@H]4O)c4ncccc4c3=O)c(F)c2)ccn1` [Compound A38, 6-(2,6-difluoro-4-(2-methylpyridin-4-yl)benzyl)-N-((1S,2S)-2-hydroxycyclopentyl)-5-oxo-5,6-dihydro-1,6-naphthyridine-8-carboxamide] are 570 nM, greater than 10000 nM, 25% and less than 5%.
The corresponding values for `COc1cc(-c2cc(F)c(Cn3cc(C(=O)N[C@H]4CCOC[C@@H]4O)c4ncccc4c3=O)c(F)c2)ccc1Cl` [Compound A39, 6-((4′-chloro-3,5-difluoro-3′-methoxy-[1,1′-biphenyl]-4-yl)methyl)-N-((3R,4S)-3-hydroxytetrahydro-2H-pyran-4-yl)-5-oxo-5,6-dihydro-1,6-naphthyridine-8-carboxamide] are no less than 10000 nM, greater than 10000 nM, 41% and less than 5%.
